Experiments:
in vitro [1] = conditions: human, liver microsomes
in vitro [2] = conditions: human, Caco-2
in vitro [3] = conditions: mouse, liver microsomes

| Compound | remaining at 1 h (in vitro [1]) [%] | Papp A→B (in vitro [2]) [×10⁻⁶ cm/s] | remaining at 1 h (in vitro [3]) [%] |
| --- | --- | --- | --- |
| C[C@H]1COCCN1c1cc(NC(=O)Cn2cc(-c3cc(Cl)c(O)c(C(N)=O)c3)c3c(=O)n(C)cnc32)c(Cl)cn1 | 27 | 3.6 | 63 |
| C[C@H]1CN(C)CCN1c1cc(NC(=O)Cn2cc(-c3cc(F)c(O)c(C(N)=O)c3F)c3c(=O)n(C)cnc32)c(Cl)c(F)n1 | 16 | 2.8 | 43 |
| C[C@H]1CN(C)CCN1c1cc(NC(=O)Cn2cc(-c3cc(F)c(O)c(C(N)=O)c3)c3c(=O)n(C)cnc32)c(Cl)cn1 | 62 | 0.5 | 49 |
| C[C@@H]1COCCN1c1cc(NC(=O)Cn2cc(-c3cc(Cl)c(O)c(C(N)=O)c3)c3c(=O)n(C)cnc32)c(Cl)cn1 | 55 | 3 | 36 |
| Cc1nc2c(c(-c3cc(C(N)=O)c(O)c(F)c3F)cn2CC(=O)Nc2cc(N3CCN(C)C[C@@H]3C)ncc2Cl)c(=O)n1C | 73 | 4.4 | 65 |
